Source: PubChem BioAssay AID330 (DTP/NCI, 2004)
Toxic doses and inconclusive results are not listed. How the source made its calls: active means survival T/C of 150% or more; inactive means T/C below 125% in these data.

System: P388 leukemia ip, CD2F1 mice, survival T/C
Experiment: NCI In Vivo Anticancer Drug Screen. Data for tumor model P388 Leukemia (intraperitoneal) in CD2F1 (CDF1) mice
Conditions: endpoint: median survival time, higher = longer survival
In short: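 Mice carrying the transplanted tumor received test compound or vehicle. Survival was recorded in each group, and the value is the treated-group measurement divided by that of the vehicle-treated control group.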

[1] = dose: 60.0 mg/kg/injection, schedule: Q01DX005 (ip), vehicle: saline with Tween-80
[2] = dose: 120.0 mg/kg/injection, schedule: Q01DX005 (ip), vehicle: saline with Tween-80
[3] = dose: 50.0 mg/kg/injection, schedule: Q01DX009 (ip), vehicle: saline with Tween-80
[4] = dose: 100.0 mg/kg/injection, schedule: Q01DX009 (ip), vehicle: saline with Tween-80
[5] = dose: 25.0 mg/kg/injection, schedule: Q01DX009 (ip), vehicle: water
[6] = dose: 50.0 mg/kg/injection, schedule: Q01DX009 (ip), vehicle: water
[7] = dose: 100.0 mg/kg/injection, schedule: Q01DX009 (ip), vehicle: water
[8] = dose: 100.0 mg/kg/injection, schedule: Q04DX002 (ip), vehicle: Klucel (hydroxypropylcellulose) (HPC)
[9] = dose: 200.0 mg/kg/injection, schedule: Q04DX002 (ip), vehicle: Klucel (hydroxypropylcellulose) (HPC)
[10] = dose: 400.0 mg/kg/injection, schedule: Q04DX002 (ip), vehicle: Klucel (hydroxypropylcellulose) (HPC)

Measured: T/C

CN=C1NC(=O)C(C(C)c2c[nH]c3ccccc23)S1 (configuration not stated)
inactive: dose: 50.0 mg/kg/injection, schedule: Q01DX009 (ip), vehicle: Klucel (hydroxypropylcellulose) (HPC) 111 % of control | dose: 100.0 mg/kg/injection, schedule: Q01DX009 (ip), vehicle: Klucel (hydroxypropylcellulose) (HPC) 111 % of control | dose: 200.0 mg/kg/injection, schedule: Q01DX009 (ip), vehicle: Klucel (hydroxypropylcellulose) (HPC) 113 % of control

Cc1[nH]c2ccc(N(C)C)cc2c(=O)c1Cc1c(C)[nH]c2ccc(N(C)C)cc2c1=O
inactive: [1] 92 % of control | [2] 89 % of control

N#Cc1nnc2cc(-c3ccccc3)nn2c1C1CC1
inactive: dose: 60.0 mg/kg/injection, schedule: Q01DX005 (ip), vehicle: Klucel (hydroxypropylcellulose) (HPC) 96 % of control | dose: 120.0 mg/kg/injection, schedule: Q01DX005 (ip), vehicle: Klucel (hydroxypropylcellulose) (HPC) 96 % of control | dose: 240.0 mg/kg/injection, schedule: Q01DX005 (ip), vehicle: Klucel (hydroxypropylcellulose) (HPC) 100 % of control

CC(C)CC(N)C(=O)NC(Cc1cc2ccccc2[nH]1)C(=O)O (configuration not stated)
inactive: [3] 101 % of control | [4] 107 % of control | dose: 200.0 mg/kg/injection, schedule: Q01DX009 (ip), vehicle: saline with Tween-80 104 % of control

CC(=O)/C=C\c1ccc(Cl)cc1
inactive: [3] 100 % of control | [4] 91 % of control | dose: 100.0 mg/kg/injection, schedule: Q04DX003 (ip), vehicle: saline with Tween-80 113 % of control | dose: 200.0 mg/kg/injection, schedule: Q04DX003 (ip), vehicle: saline with Tween-80 98 % of control | dose: 400.0 mg/kg/injection, schedule: Q04DX003 (ip), vehicle: saline with Tween-80 91 % of control

CC1=C(c2ccccc2)OS(=O)(=O)NC1=O
inactive: [5] 114 % of control | [6] 104 % of control | [7] 106 % of control | dose: 200.0 mg/kg/injection, schedule: Q01DX009 (ip), vehicle: water 103 % of control | dose: 400.0 mg/kg/injection, schedule: Q01DX009 (ip), vehicle: water 113 % of control

CSC(=O)N(C)C(=O)Nc1cccc([N+](=O)[O-])c1
inactive: dose: 100.0 mg/kg/injection, schedule: Q04DX003 (ip), vehicle: Klucel (hydroxypropylcellulose) (HPC) 100 % of control | dose: 200.0 mg/kg/injection, schedule: Q04DX003 (ip), vehicle: Klucel (hydroxypropylcellulose) (HPC) 99 % of control | dose: 400.0 mg/kg/injection, schedule: Q04DX003 (ip), vehicle: Klucel (hydroxypropylcellulose) (HPC) 90 % of control

c1ccc2c3c(ccc2c1)-c1ccc2ccccc2c1OP1(=NP(N2CC2)(N2CC2)=NP(N2CC2)(N2CC2)=N1)O3
inactive: [8] 100 % of control | [9] 99 % of control | [10] 103 % of control

Cc1ccc(NC(=S)N/N=C\c2nc3ccccc3c3ccccc23)cc1
inactive: [8] 98 % of control | [9] 92 % of control | [10] 93 % of control

COc1cc2c[n+]3c4c(cccc4c2cc1OC)CC3
inactive: [5] 108 % of control | [6] 118 % of control | [7] 114 % of control

COc1cc2c(cc1OC)C1C(O)C(OC)C=C3CCN(C2)C31 (configuration not stated)
inactive: dose: 25.0 mg/kg/injection, schedule: Q01DX009 (ip), vehicle: saline with Tween-80 114 % of control | [3] 114 % of control | dose: 50.0 mg/kg/injection, schedule: Q01DX009 (ip), vehicle: saline 93 % of control | [4] 118 % of control | dose: 100.0 mg/kg/injection, schedule: Q01DX009 (ip), vehicle: saline 119 % of control | dose: 200.0 mg/kg/injection, schedule: Q01DX009 (ip), vehicle: saline 102 % of control

CC1C(=O)C(C)C(c2ccccc2)N(C)C1c1ccccc1 (configuration not stated)
inactive: dose: 50.0 mg/kg/injection, schedule: Q01DX005 (ip), vehicle: saline with Tween-80 96 % of control | [1] 101 % of control | dose: 100.0 mg/kg/injection, schedule: Q01DX005 (ip), vehicle: saline with Tween-80 106 % of control | [2] 96 % of control | dose: 200.0 mg/kg/injection, schedule: Q01DX005 (ip), vehicle: saline with Tween-80 98 % of control | dose: 240.0 mg/kg/injection, schedule: Q01DX005 (ip), vehicle: saline with Tween-80 106 % of control

NCCNCC[OH2+].NCCNCC[OH2+].O=[N+]([O-])[O-].[Ni+2]
inactive: dose: 12.5 mg/kg/injection, schedule: Q01DX009 (ip), vehicle: saline 93 % of control | dose: 25.0 mg/kg/injection, schedule: Q01DX009 (ip), vehicle: saline 102 % of control
